This is an account of results in ChEMBL document CHEMBL5291721, “A preclinical secondary pharmacology resource illuminates target-adverse drug reaction associations of marketed drugs” (Nat Commun, 2023).

Assay [1] has as its target Beta-2 adrenergic receptor (Homo sapiens, UniProt P07550).
The target in assay [2] is T1, Type-1 angiotensin II receptor (Homo sapiens, UniProt P30556).
T1 sequence (P30556 whole entry): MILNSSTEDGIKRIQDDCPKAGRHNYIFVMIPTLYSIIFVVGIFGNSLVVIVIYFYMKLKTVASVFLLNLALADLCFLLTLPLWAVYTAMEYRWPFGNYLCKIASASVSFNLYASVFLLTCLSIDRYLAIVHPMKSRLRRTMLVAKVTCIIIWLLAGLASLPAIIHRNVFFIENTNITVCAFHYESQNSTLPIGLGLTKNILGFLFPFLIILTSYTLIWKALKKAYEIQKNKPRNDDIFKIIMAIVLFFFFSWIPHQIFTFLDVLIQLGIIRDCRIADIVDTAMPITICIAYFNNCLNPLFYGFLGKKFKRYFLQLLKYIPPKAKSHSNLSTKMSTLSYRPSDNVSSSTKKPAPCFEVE

Assay [3] deals with T2, Progesterone receptor (Homo sapiens, UniProt P06401).
T2 sequence (P06401 whole entry): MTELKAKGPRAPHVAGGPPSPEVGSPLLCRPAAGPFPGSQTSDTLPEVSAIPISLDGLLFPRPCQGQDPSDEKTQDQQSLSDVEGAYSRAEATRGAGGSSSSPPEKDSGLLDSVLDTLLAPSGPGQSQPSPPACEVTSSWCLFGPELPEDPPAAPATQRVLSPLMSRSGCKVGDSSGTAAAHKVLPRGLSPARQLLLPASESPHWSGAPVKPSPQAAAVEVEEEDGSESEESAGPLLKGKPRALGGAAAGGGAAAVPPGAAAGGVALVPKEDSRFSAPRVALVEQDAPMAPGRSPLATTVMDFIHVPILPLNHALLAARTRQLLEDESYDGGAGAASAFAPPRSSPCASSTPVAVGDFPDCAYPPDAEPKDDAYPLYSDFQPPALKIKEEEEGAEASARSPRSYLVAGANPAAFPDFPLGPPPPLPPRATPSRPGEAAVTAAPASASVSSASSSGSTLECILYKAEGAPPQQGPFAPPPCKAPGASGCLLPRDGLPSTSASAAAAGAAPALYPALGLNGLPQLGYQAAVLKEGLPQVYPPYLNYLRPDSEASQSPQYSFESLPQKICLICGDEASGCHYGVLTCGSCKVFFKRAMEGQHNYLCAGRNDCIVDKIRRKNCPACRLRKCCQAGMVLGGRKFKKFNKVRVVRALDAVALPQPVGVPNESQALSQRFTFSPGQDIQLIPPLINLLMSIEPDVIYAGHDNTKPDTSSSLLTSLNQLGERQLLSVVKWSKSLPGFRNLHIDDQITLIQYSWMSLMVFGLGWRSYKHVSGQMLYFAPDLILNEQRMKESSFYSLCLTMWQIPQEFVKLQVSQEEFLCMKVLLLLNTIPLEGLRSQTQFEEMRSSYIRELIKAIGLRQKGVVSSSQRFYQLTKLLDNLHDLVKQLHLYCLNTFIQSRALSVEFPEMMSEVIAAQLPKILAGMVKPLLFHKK
The class given is functional.

Assay [4] addresses Vasopressin V2 receptor (Homo sapiens, UniProt P30518).
Assay [5] has as its target T3, 5-hydroxytryptamine receptor 1A (Homo sapiens, UniProt P08908).
T3 sequence (P08908 whole entry): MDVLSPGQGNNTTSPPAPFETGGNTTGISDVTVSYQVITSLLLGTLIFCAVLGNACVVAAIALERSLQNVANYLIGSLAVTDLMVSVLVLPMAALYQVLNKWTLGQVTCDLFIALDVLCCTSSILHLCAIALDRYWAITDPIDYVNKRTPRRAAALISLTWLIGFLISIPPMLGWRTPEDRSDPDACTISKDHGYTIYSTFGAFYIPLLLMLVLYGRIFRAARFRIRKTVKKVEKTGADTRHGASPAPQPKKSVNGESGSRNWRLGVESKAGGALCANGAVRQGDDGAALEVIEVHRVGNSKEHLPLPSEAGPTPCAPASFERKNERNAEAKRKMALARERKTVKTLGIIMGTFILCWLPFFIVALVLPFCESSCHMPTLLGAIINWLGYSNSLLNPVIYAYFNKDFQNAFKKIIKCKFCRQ
The class given is functional, cell-based.

The target in assay [6] is T4, Glucocorticoid receptor (Homo sapiens, UniProt P04150).
T4 sequence (P04150 whole entry): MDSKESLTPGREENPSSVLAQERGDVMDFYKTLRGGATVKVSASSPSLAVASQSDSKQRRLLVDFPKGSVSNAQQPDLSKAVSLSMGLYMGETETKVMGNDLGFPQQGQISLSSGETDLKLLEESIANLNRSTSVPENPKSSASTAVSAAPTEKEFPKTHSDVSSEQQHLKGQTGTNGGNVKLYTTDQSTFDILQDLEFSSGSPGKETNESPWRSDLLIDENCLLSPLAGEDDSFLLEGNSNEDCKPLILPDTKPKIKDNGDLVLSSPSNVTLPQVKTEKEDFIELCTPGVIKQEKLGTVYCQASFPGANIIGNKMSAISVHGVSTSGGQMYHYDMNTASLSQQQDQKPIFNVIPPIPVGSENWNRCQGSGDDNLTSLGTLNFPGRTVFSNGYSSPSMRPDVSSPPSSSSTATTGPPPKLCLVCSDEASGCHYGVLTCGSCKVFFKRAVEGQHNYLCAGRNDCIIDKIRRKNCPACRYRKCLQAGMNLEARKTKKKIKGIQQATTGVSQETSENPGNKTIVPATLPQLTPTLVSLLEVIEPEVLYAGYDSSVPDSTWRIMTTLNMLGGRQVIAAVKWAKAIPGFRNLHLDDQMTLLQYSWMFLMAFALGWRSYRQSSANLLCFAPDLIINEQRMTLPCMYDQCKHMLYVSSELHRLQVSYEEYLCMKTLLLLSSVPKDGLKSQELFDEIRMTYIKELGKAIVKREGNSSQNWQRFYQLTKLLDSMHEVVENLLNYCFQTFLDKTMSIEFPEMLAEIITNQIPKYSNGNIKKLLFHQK

In assay [7] the target is Sodium-dependent serotonin transporter (Homo sapiens, UniProt P31645).
Assay [8] concerns the target 5-hydroxytryptamine receptor 2A (Homo sapiens, UniProt P28223). The class given is functional, cell-based.
Note: assay procedure not described here.

Chain of Vasopressin V2 receptor (P30518 whole entry): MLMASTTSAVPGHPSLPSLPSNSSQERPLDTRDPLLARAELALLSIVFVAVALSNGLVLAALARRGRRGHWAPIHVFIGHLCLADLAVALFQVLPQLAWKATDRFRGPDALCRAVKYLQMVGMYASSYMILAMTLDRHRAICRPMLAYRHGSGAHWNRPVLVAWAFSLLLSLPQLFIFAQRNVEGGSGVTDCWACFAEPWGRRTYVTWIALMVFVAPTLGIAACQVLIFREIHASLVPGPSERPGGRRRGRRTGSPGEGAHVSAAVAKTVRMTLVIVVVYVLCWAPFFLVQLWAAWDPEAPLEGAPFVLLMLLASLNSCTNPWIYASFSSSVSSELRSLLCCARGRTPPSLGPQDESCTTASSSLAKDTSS
Chain of Sodium-dependent serotonin transporter (P31645 whole entry): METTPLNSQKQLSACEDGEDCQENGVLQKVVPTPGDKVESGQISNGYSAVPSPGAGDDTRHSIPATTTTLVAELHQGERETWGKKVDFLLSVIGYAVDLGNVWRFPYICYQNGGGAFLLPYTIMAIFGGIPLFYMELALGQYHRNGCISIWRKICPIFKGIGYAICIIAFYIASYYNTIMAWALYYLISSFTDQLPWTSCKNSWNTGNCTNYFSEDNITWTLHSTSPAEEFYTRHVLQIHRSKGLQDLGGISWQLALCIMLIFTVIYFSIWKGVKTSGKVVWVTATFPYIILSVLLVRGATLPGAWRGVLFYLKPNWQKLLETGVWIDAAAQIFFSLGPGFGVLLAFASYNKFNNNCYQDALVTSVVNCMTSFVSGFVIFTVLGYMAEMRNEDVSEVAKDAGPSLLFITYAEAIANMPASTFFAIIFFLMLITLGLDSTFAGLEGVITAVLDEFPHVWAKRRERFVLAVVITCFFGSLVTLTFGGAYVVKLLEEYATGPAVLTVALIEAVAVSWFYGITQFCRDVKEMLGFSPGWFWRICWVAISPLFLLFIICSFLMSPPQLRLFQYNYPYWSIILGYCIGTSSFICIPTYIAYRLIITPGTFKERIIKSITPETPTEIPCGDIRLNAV
Chain of Beta-2 adrenergic receptor (P07550 whole entry): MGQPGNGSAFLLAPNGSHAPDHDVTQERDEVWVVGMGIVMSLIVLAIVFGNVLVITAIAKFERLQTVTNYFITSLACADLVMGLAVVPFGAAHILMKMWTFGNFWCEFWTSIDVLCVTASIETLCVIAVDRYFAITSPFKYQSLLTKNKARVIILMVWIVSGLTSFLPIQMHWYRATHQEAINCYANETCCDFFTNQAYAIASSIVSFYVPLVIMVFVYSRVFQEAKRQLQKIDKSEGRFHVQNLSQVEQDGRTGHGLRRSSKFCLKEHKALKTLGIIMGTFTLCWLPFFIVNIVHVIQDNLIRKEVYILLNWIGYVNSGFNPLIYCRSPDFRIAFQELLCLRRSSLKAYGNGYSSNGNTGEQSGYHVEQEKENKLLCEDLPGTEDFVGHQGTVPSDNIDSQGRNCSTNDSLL
Chain of 5-hydroxytryptamine receptor 2A (P28223 whole entry): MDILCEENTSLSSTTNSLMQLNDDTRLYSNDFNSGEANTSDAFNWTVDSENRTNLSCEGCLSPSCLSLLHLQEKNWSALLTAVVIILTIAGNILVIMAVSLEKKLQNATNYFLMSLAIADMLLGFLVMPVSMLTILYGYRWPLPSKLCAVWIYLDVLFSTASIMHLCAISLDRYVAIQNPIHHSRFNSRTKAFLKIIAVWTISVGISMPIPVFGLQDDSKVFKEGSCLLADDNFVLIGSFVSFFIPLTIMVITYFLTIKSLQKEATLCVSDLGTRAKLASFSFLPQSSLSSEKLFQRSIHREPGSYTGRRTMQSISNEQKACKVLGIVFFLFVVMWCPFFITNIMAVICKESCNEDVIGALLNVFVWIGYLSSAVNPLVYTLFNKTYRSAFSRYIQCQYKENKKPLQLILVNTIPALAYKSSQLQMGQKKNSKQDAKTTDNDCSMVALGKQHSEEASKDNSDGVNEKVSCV

The term AC50 denotes the concentration at which the activity in the assay is half-maximal. A lower AC50 goes with activity at low concentration. As for `CN(C/C=C/c1ccccc1)Cc1cccc2ccccc12` [NAFTIFINE], the AC50 in assay [1] is more than 30 µM; in assay [2] it was more than 30 µM; in assay [3] it was more than 30 µM; in assay [4], more than 30 µM; in assay [5], more than 10 µM; in assay [6], more than 30 µM.
Regarding `O=C(Cn1ccnc1[N+](=O)[O-])NCc1ccccc1` [BENZNIDAZOLE], the AC50 in assay [1], in assay [7], in assay [8], in assay [2], in assay [3] and in assay [4] was more than 30 µM in each case. In assay [6], this molecule showed an AC50 of more than 30 µM.
Consider `CS(=O)(=O)Nc1cc2occ(NC=O)c(=O)c2cc1Oc1ccccc1` [IGURATIMOD], for which the AC50 in assay [7] and in assay [3] was more than 30 µM in each case.
For `CCCC(=O)N1CCCN(c2nc(N)c3cc(OC)c(OC)cc3n2)CC1` [BUNAZOSIN], the AC50 in assay [7], in assay [8], in assay [2], in assay [3], in assay [4] and in assay [5] was more than 30 µM in each case.
As for `NS(=O)(=O)c1cc2c(cc1Cl)NC(CC1CCCC1)NS2(=O)=O` (stereo unspecified) [CYCLOPENTHIAZIDE], the AC50 in assay [8] and in assay [5] was more than 30 µM each time.
For `CC(C)(N)Cc1ccc(Cl)cc1` [CHLORPHENTERMINE], the AC50 was more than 10 µM in assay [1]; 4.57 µM in assay [7]; more than 30 µM in assay [8]; more than 30 µM in assay [2]; more than 30 µM in assay [4]; more than 10 µM in assay [5].
Turning to `COCC1=C(C(=O)OC(C)OC(=O)OC(C)C)N2C(=O)[C@@H](NC(=O)/C(=N\OC)c3csc(N)n3)[C@H]2SC1` (stereo partly specified) [CEFPODOXIME PROXETIL], the AC50 in assay [8] and in assay [5] was more than 30 µM in each case.
As to `O=P(O)(O)C(O)(Cc1cccnc1)P(=O)(O)O` [RISEDRONIC ACID], the AC50 in assay [1] was more than 30 µM; in assay [2], more than 30 µM; in assay [3], more than 30 µM; in assay [4] it was more than 30 µM; in assay [5], more than 10 µM; in assay [6] it was more than 30 µM.
Regarding `CN1C(=O)N(C)C2C1N(C)C(=O)N2C` (stereo unspecified) [MEBICAR], the AC50 in assay [8] and in assay [5] was more than 30 µM each time.
As to `CC(C(O)c1ccc(O)cc1)N1CCC(Cc2ccccc2)CC1` (stereo unspecified) [IFENPRODIL], the AC50 in assay [1] was more than 30 µM; in assay [7] it was 0.28 µM; in assay [8], more than 30 µM; in assay [2], more than 30 µM; in assay [4] it was more than 30 µM; in assay [6], more than 30 µM.
As to `CN(C)CCCN1c2ccccc2Sc2ccccc21` [PROMAZINE], the half-maximal activity concentration (AC50) in assay [1] was 7.6 µM; in assay [2], more than 10 µM; in assay [4] it was more than 30 µM; in assay [5] it was more than 10 µM.
Take `CC(=O)N(CC(O)CO)c1c(I)c(C(=O)NCC(O)CO)c(I)c(C(=O)NCC(O)CO)c1I` (stereo unspecified) [IOHEXOL]: the AC50 is more than 30 µM in assay [1]; more than 30 µM in assay [7]; more than 30 µM in assay [8]; more than 30 µM in assay [2]; more than 30 µM in assay [4]; more than 10 µM in assay [5].
With `CN(CCCN1c2ccccc2CCc2ccccc21)CC(=O)c1ccc(Cl)cc1` [LOFEPRAMINE], the AC50 in assay [1] is 20 µM; in assay [8], more than 30 µM; in assay [2] it was more than 30 µM; in assay [4], more than 30 µM; in assay [6], more than 30 µM.
In the case of `O=C1CCC(N2C(=O)c3ccccc3C2=O)C(=O)N1` (stereo unspecified) [THALIDOMIDE], the AC50 is more than 10 µM in assay [1]; more than 30 µM in assay [2]; more than 30 µM in assay [4]; more than 10 µM in assay [5]; more than 30 µM in assay [6].
As to `C[N+](C)(C)CC(=O)O` [BETAINE], the AC50 in assay [1], in assay [7], in assay [8], in assay [2], in assay [3] and in assay [4] was more than 30 µM throughout. Moreover, the AC50 in assay [5] was more than 30 µM.
Turning to `N[C@@H](CSCC(=O)O)C(=O)O` [CARBOCYSTEINE], the AC50 in assay [1], in assay [7], in assay [8], in assay [2], in assay [3] and in assay [4] was more than 30 µM throughout. For the same molecule, in assay [5], the AC50 is more than 30 µM.
For `O=C(O)c1cccc(-c2noc(-c3ccccc3F)n2)c1`, the AC50 in assay [1] was more than 30 µM.
For `CC(=O)O[C@]1(C(C)=O)CC[C@H]2[C@@H]3C[C@H](C)C4=CC(=O)CC[C@]4(C)[C@H]3CC[C@@]21C` [MEDROXYPROGESTERONE ACETATE], the values for the concentration at half-maximal activity (AC50) in assay [2], in assay [4] and in assay [6] were more than 30 µM, more than 30 µM and 0.015 µM, respectively.
Regarding `N/N=c1/cc2c(n[nH]1)CCN(C(=O)c1ccccc1)C2` [ENDRALAZINE], the AC50 in assay [8] and in assay [5] was more than 30 µM each time.
As to `C=C1C[C@@H]2[C@H](CC[C@]3(C)C(=O)CC[C@@H]23)[C@@]2(C)C=CC(=O)C=C12` [EXEMESTANE], the AC50 in assay [1] was more than 10 µM; in assay [7], more than 30 µM; in assay [8] it was more than 30 µM; in assay [2], more than 30 µM; in assay [4], more than 30 µM; in assay [5], more than 10 µM.
On to `CO/N=C(\C(=O)N[C@@H]1C(=O)N2C(C(=O)OCOC(=O)C(C)(C)C)=C(C)CS[C@H]12)c1csc(N)n1`, for which the AC50 in assay [8] and in assay [5] was more than 30 µM in each case.
As for `O=C(Nc1ccccc1)OCC(CN1CCCCC1)OC(=O)Nc1ccccc1` (stereo unspecified) [DIPERODON], the AC50 in assay [1] is more than 10 µM; in assay [7], more than 10 µM; in assay [8], more than 30 µM; in assay [2], more than 30 µM; in assay [4] it was more than 30 µM; in assay [5] it was more than 10 µM. For the same molecule, the AC50 in assay [6] was more than 30 µM.
`C[N+](C)(C)CCOC(N)=O` [CARBAMOYLCHOLINE]: the AC50 in assay [1] was more than 10 µM; in assay [2], more than 10 µM; in assay [3] it was more than 10 µM; in assay [4], more than 10 µM; in assay [5], more than 30 µM.
Consider `Nc1ccc(/N=N/c2ccccc2)c(N)n1` [PHENAZOPYRIDINE], for which the AC50 in assay [8] is more than 30 µM.
